Read-outs that look alike come from different tables or passages of the source. Blank lines part the entries; values can stand above or below the molecule they belong to.
Experiments:
Escherichia coli [1] = assay: Agar well diffusion assay, E. coli; type: cell-based; details: read-out: E. coli ZID
Candida albicans [2] = assay: Agar well diffusion assay, C. albicans; type: cell-based; details: ratio of inhibition zone to that of positive control
Method: (§1) According to the reported method, the OSe agents’ antimicrobial properties were estimated against Staphylococcus aureus (S. aureus), Escherichia coli (E. coli), and Candida albicans (C. albicans) microbial strains using the agar well diffusion assay. In addition, the MICs (in […]) were also recorded via the microdilution method following the reported procedure. Experimental details can be found in the Supplementary Materials Section S1 [16, 18].
(§2) The promising anticancer activities manifested by the OSe compounds encourage us to further evaluate their respective antimicrobial activity against a panel of gram-negative bacteria (e.g., E. coli) and the gram-positive bacteria (e.g., S. aureus) as well as a fungal strain (C. albicans) using the method of agar diffusion. The clotrimazole antifungal and the ampicillin antibacterial drugs were used as the positive controls. […]
(§3) 1.1.2. The antimicrobial activity
(§4) The antimicrobial activities of the OSe compounds were evaluated against C. albicans yeast as well as E. coli gram-negative and S. aureus gram-positive bacteria employing the agar well diffusion assay [ 4 ] .
(§5) Briefly, a concentration of 1 mM was prepared for each compound by dissolving in DMSO.
(§6) Paper discs of standard size […] were sterilized in an autoclave and soaked in 9 µL of the test compounds, and placed in the Petri dishes, which in turn contain a nutrient media (agar 9 g, peptone 5 g, and beef extract 3 g) seeded with the dedicated strain. Incubation lasted for 13 h at 36 0C. Experiments were replicated three times and the antifungal clotrimazole and antibiotic ampicillin were used as standards. The % activity index for the complex was determined and depicted in table 2. […]

HepG2 cells = assay: MTT assay, antiproliferative activity, HepG2 liver carcinoma cells; type: cell-based; details: Homo sapiens, read-out: HepG2 IC50
Method: (§7) The anticancer activity of the OSe was performed using the MTT assay against liver (HepG2) and breast (MCF-7) carcinoma cells, as well as normal WI-38 cells following the reported method. Experimental details can be found in the Supplementary Materials Section S1.
(§8) Accordingly, the anticancer properties of the OSe hybrids were assessed against two cancer cell lines, i.e., HepG2 and MCF-7 cells. Furthermore, their corresponding cytotoxicity was also estimated against the immortalized lung WI-38 fibroblasts employing the MTT assay. The Adriamycin cancer drug was used as the positive control. The concentration inhibition, 50%, needed to kill half of the cells (IC50) was estimated from (concentration-response plots) and tabulated in Table 1.
(§9) 1.1. The biological assays
(§10) 1.1.1. The anticancer activity
(§11) The breast adenocarcinoma (MCF-7), Hepatocellular carcinoma (HEPG-2), and normal fibroblast (WI-38) cells were obtained from ATCC via Holding company for biological products and vaccines (VACSERA), Cairo, Egypt. The reagents […] medium, MTT, DMSO, and fetal bovine serum was obtained from Sigma Aldrich. Dulbecco’s modified Eagle’s medium was used as the culture medium for the cells, and the cytotoxicity was evaluated using the reported MTT assay. Doxorubicin was used as the positive reference, and the IC50 values were obtained from the corresponding dose-response curve.
(§12) This colorimetric assay is based on converting the yellow tetrazolium bromide (MTT) to a purple formazan derivative by mitochondrial succinate dehydrogenase in viable cells. Cell lines were cultured in […] medium with 10% fetal bovine serum. Antibiotics added were 100 units/ml penicillin and 100µg/ml streptomycin at 37 C in a 5% Co2 incubator. The cell lines were seeded in a 96-well plate at a density of 1.0x10^4 cells/well. at 37 C for 48 h under 5% […]
Finally, dimethyl sulfoxide (DMSO) in the volume of 100 µl is added to each well to dissolve the purple formazan formed. The colorimetric assay is measured and recorded at an absorbance of 570 nm using a plate reader (EXL 800, USA). […]

MCF-7 cells = assay: MTT assay, antiproliferative activity, MCF-7 breast carcinoma cells; type: cell-based; details: Homo sapiens, MCF7, 24 h, read-out: MCF7 IC50
Method: as §7
as §8, with “control.” for “control. The concentration inhibition, 50%, needed to kill half of the cells (IC50) was estimated from (concentration-response plots) and tabulated in Table 1.”
as §9, §10, §11, §12
(§13) Finally, dimethyl sulfoxide (DMSO) in the volume of 100 µl is added to each well to dissolve the purple formazan formed. […]

WI-38 cells = assay: MTT assay, cytotoxicity against normal WI-38 fibroblasts; type: cell-based; details: Homo sapiens, WI-38, 24 h, read-out: WI38 IC50
Method: as §7
as §8, with “control.” for “control. The concentration inhibition, 50%, needed to kill half of the cells (IC50) was estimated from (concentration-response plots) and tabulated in Table 1.”
as §9, §10, §11, §12, §13

Escherichia coli [3] = assay: Agar well diffusion assay, E. coli; type: cell-based; details: ratio of inhibition zone to that of positive control
Method: as §1, §2, §3, §4, §5, §6

Staphylococcus aureus [4] = assay: Agar well diffusion assay, S. aureus; type: cell-based; details: ratio of inhibition zone to that of positive control
Method: as §1, §2, §3, §4, §5, §6

Staphylococcus aureus [5] = assay: Agar well diffusion assay, S. aureus; type: cell-based; details: read-out: S. aureus ZID
Candida albicans [6] = assay: Agar well diffusion assay, C. albicans; type: cell-based; details: read-out: C. Albicans ZID
[7] = DPPH radical scavenging bioassay; details: 200 µL, 1 mM in MeOH, DPPH 400 µL, 30 min, 517 nm
Description: The DPPH and ABTS in vitro bioassays were used to assess the OSe antioxidant activities following the reported method. Experimental details can be found in the Supplementary Materials Section S1.
The redox modulation activities of the OSe compounds were extensively explored over the last decade owing to their chemopreventive and antioxidant potency. The latter is usually investigated by the ABTS and DPPH in vitro tests employing vitamin C as the positive control. The OSe compound’s magnitude estimated the antioxidant potential to decolorize the distinctive colors of the DPPH^. and ABTS^. radicals at 517 nm and 734 nm, respectively (Figure 2).
Figure 2 The OSe compounds redox activities assessment using the ABTS and DPPH experiments. All tests are mean ± SD. ABTS experiment: absorbance was followed at 734 nm for OSe compounds (50 µL, 1 mM in MeOH) and ABTS solution (60 µL). DPPH experiment: Absorbance was monitored after 30 min at 517 nm for OSe compounds (200 µL, 1 mM in MeOH) and DPPH (400 µL). […]
1.1.3. The antioxidant activity
1.1.3.1. The DPPH bioassay
The hydrogen atom or electron donation ability of the corresponding compounds was measured by estimating the bleaching of the purple color of a methanolic solution of DPPH [5]. This spectrophotometric assay uses stable DPPH. reagent. The sample was prepared by adding […] of the OSe compounds (1 mM in methanol) to […] DPPH in methanol. After 30 min of incubation in the dark, the absorbance was read against a blank at […]. Ascorbic acid (vitamin C) and ebselen were used as standard antioxidants (positive control). A blank sample was run without DPPH. A negative control sample was run using methanol instead of the sample. The radical scavenging activity was […]
using the following equation:
Inhibition%= (Ablank-Asample)/(Ablank)*100. […]

SMILES: COC(=O)c1cc([Se]CC(=O)Nc2ccccc2)ccc1N [Compound 16, methyl 2-amino-5-((2-oxo-2-(phenylamino)ethyl)selanyl) benzoate]
- zone of inhibition at 20 µM (Escherichia coli [1]): 6 mm
- C. Albicans IA% (activity index) (Candida albicans [2]): 54.2%
- IC50 (HepG2 cells; HepG2, 24 h): 30.6 ± 2.4 µM
- IC50 (MCF-7 cells): 50.8 ± 2.9 µM
- IC50 (WI-38 cells): 71.9 ± 4.1 µM
- melting point: 126 to 128.5 °C
- E. coli IA% (activity index) (Escherichia coli [3]): 26.1%
- S. aureus IA% (activity index) (Staphylococcus aureus [4]): 42.8%
- zone of inhibition at 20 µM (Staphylococcus aureus [5]): 9 mm
- zone of inhibition at 20 µM (Candida albicans [6]): 13 mm

- IC50 (HepG2 cells; MTT, HepG2 cells, 24 h incubation): 4.5 ± 0.2 µM
SMILES: COc1cccc2c1C(=O)c1c(O)c3c(c(O)c1C2=O)C[C@@](O)(C(=O)CO)C[C@@H]3O[C@H]1C[C@H](N)[C@H](O)[C@H](C)O1 [Adriamycin, reference compound]

SMILES: COC(=O)c1cc([Se][Se]c2ccc(NC(=O)CCl)c(C(=O)OC)c2)ccc1NC(=O)CCl [Compound 9, dimethyl 5,5′-diselanediylbis(2-(2-chloroacetamido) benzoate)]
- IC50 (HepG2 cells; HepG2, 24 h): > 100 µM
- IC50 (MCF-7 cells): > 100 µM
- IC50 (WI-38 cells): > 100 µM
- melting point: 150 to 152 °C

SMILES: COC(=O)c1cc([Se][Se]c2ccc(N3C(=O)CCC3=O)c(C(=O)OC)c2)ccc1N1C(=O)CCC1=O [Compound 12, dimethyl 5,5′-diselanediylbis(2-(2,5-dioxopyrrolidin-1-yl) benzoate]
- IC50 (HepG2 cells; HepG2, 24 h): > 100 µM
- IC50 (MCF-7 cells): > 100 µM
- IC50 (WI-38 cells): > 100 µM
- melting point: 100 °C

SMILES: COC(=O)c1cc([Se]Cc2ccccc2)ccc1N [Compound 15, methyl 2-amino-5-(benzylselanyl) benzoate]
- zone of inhibition at 20 µM (Escherichia coli [1]): 17 mm
- C. Albicans IA% (activity index) (Candida albicans [2]): 91.7%
- IC50 (HepG2 cells; HepG2, 24 h): 6.48 ± 0.4 µM
- IC50 (MCF-7 cells): 12.8 ± 0.9 µM
- IC50 (WI-38 cells): 25.8 ± 1.8 µM
- melting point: 78 °C
- E. coli IA% (activity index) (Escherichia coli [3]): 73.9%
- S. aureus IA% (activity index) (Staphylococcus aureus [4]): 85.7%
- zone of inhibition at 20 µM (Staphylococcus aureus [5]): 18 mm
- zone of inhibition at 20 µM (Candida albicans [6]): 22 mm
- DPPH radical scavenging activity [7]: 89%

SMILES: COC(=O)c1cc([Se][Se]c2ccc(NC(=O)CCC(=O)O)c(C(=O)OC)c2)ccc1NC(=O)CCC(=O)O [Compound 11]
- zone of inhibition at 20 µM (Escherichia coli [1]): 5 mm
- C. Albicans IA% (activity index) (Candida albicans [2]): 41.7%
- IC50 (HepG2 cells; HepG2, 24 h): 43.7 ± 2.6 µM
- IC50 (MCF-7 cells): 55.1 ± 3.2 µM
- IC50 (WI-38 cells): > 100 µM
- melting point: 150 to 152 °C
- E. coli IA% (activity index) (Escherichia coli [3]): 21.7%
- S. aureus IA% (activity index) (Staphylococcus aureus [4]): 33.3%
- zone of inhibition at 20 µM (Staphylococcus aureus [5]): 7 mm
- zone of inhibition at 20 µM (Candida albicans [6]): 10 mm
